US10973832B2, “Muscarinic M1 receptor agonists” (Heptares Therapeutics Limited, priority 2011, dated 2021)

Tests used:
[1] = tested on: Male Wistar rats; assay: Novel object recognition; assay type: in vivo; conditions: 10 and 30 mg/kg oral gavage 90 minutes prior to training; p<0.05
Description: The novel object recognition paradigm is based on the greater spontaneous exploration of a novel object, compared with a familiar object, shown by rodents (Ennaceur and Delacour, 1988). […] Male Wistar rats were assessed for cognitive ability in a test apparatus comprising an open-field arena placed in a sound-attenuated room under dimmed lighting. Images of the open-field were captured by digital camera, and viewed on a monitor in an adjoining room. Each rat was subjected to the procedure separately and care taken to remove any olfactory/taste cues by cleaning the arena and test objects with alcohol between trials and rats. All tests are video scored blind to treatment. Following a 10-minute habituation period, each rat was placed into the test arena in the presence of two identical objects (plastic shapes). Each rat was placed facing the same direction at the same position in the arena, and the time spent actively exploring the objects during a 5-minute training period (T1) was recorded. The rat is returned to its home cage between tests. After 24 hours, each rat was again placed in the test arena for 5 minutes (T2) in the presence of one of the familiar objects and a novel object, and the time spent exploring both objects again recorded. The presentation order and position of the objects (left/right) was randomized between rats to prevent bias from order or place preference. Doses of 3, 10 or 30 mg/kg of test compound were administered by oral gavage 90 minutes prior to training (n=8). Donepezil (0.1 mg/kg) and galanthamine (3 mg/kg) were administered via intraperitoneal injection 60 minutes prior to training. Vehicle-treated controls were employed for comparison.

[2] = biological target: T1, human muscarinic M4 receptor (Homo sapiens, UniProt P08173); assay: Phospho-ERK1/2 assay, muscarinic M4; assay type: cell-based; conditions: for Emax: CHO, read-out: % Emax cf. ACh (M4)
T1 construct: expressed in transfected cells
T1 sequence (P08173 1-479): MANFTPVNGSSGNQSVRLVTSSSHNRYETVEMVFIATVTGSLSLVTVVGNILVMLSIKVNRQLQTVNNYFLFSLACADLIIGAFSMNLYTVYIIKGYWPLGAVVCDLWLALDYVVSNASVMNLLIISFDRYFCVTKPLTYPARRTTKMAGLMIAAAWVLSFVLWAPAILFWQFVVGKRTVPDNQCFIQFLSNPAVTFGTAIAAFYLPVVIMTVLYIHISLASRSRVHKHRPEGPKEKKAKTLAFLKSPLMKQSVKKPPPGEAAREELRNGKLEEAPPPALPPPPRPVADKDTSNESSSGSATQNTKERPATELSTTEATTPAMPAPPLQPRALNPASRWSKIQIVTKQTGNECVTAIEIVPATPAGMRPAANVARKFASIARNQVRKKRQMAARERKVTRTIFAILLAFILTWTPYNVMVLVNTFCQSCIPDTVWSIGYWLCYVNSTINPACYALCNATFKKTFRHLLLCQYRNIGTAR
How it was run: (§1)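 The assay used ERK1/2 phosphorylation as a common downstream read-out of Gq/11 and Gi/o receptor activation. CHO cells expressing each human receptor were exposed to agonist for five minutes at 37 °C after overnight serum starvation. Potency (pEC50) and maximal effect (Emax) came from the AlphaScreen signal.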

[3] = biological target: T2, human muscarinic M1 receptor (Homo sapiens, UniProt P11229); assay: Phospho-ERK1/2 assay, muscarinic M1; assay type: cell-based; conditions: for Emax: CHO, read-out: % Emax cf. ACh (M1)
T2 sequence (P11229 1-460): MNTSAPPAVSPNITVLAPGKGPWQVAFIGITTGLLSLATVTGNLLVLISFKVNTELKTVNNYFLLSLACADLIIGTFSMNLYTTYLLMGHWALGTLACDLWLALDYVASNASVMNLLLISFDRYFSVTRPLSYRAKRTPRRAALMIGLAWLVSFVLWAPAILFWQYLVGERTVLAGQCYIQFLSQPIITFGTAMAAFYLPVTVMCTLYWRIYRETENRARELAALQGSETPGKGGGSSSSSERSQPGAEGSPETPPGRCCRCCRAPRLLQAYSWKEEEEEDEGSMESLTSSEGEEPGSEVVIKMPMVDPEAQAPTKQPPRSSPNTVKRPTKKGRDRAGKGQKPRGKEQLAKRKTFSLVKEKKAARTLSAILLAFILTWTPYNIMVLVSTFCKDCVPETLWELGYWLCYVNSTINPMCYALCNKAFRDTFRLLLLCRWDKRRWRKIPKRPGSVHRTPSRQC
How it was run: as §1

SMILES | novel object recognition memory vs vehicle-treated controls [1] | EC50 [2] [µM] | Emax [2] [%] | EC50 [3] [µM] | Emax [3] [%]
CCOC(=O)N1CCC[C@H](N2CCC(C(=O)NC3(C)CCC3)CC2)CC1 [Example 65, ethyl (4S)-4-{4-[(1-methylcyclobutyl)carbamoyl]piperidin-1-yl)azepane-1-carbondate] | significantly improved novel object recognition memory | 0.224 | 97 | 0.0316 | 104
CCOC(=O)N1CCCC(N2CCC(C(=O)NC3(C)CCC3)CC2)CC1 (stereo not drawn) [Example 27, ethyl 4-(4-((1-methylcyclobutyl)carbamoyl)piperidin-1-yl)azepane-1-carboxylate] | – | 0.427 | 88 | 0.0457 | 117
